Source: patent publication US20020160413A1, “COMBINATORIAL LIBRARIES” (priority 1998, published 2002)

Columns and labels:
Type in all cases: binding
[1] = Control selection of salicylaldimine library on cellulose alone; settings: conditions identical to double-stranded experiment
[2] = system: double-stranded oligo(dA)-oligo(dT); assay: Affinity selection and amplification of salicylaldimine library on double-stranded DNA affinity column; settings: for retention on the affinity column in the presence of zinc: 0.5 mM each of 8-13, with 26 MM ZnCl2, normalized to values in the absence of zinc, two-hour incubation
Text: A serious potential problem with the selection and amplification of a single compound from an equilibrating mixture of complexes is that of identifying the desired high-affinity species. First, if the selection is not complete for a single compound, the separation and identification of a potentially large number of complexes presents a significant analytical challenge. Furthermore, since reequilibration of complexes can occur once the affinity resin is removed, it might be expected that binding information would be lost. […] Application of this technique to the eluent from an affinity column would permit deconvolution of the library to provide information about the identity of binding complexes.
With a series of monomers, verification of self-assembly in aqueous solutions, and a separation method in hand, the experimental tools were in place to conduct an affinity selection and amplification experiment. A standard solution of 0.5 mM 8-13 (total concentration 3 mM in “monomer”) was prepared in 10 mM Tris•HCl, 100 mM KCl, 1% DMSO, pH 7.5. To determine the effect of zinc on the observed selection, samples were prepared either with or without 26 MM ZnCl2. Samples were allowed to incubate for one hour to allow an equilibrium mixture of complexes to form, and the latter were then individually added to affinity columns prepared from 30 mg of commercial poly(dT)-cellulose resin (Pharmacia Biotech) preincubated with one A260 unit (approximately 7 nmol) of oligo (dA)12-18(Oligo (dA)12-18 as obtained from Pharmacia Biotech is a mixture of homopolymeric, single-stranded DNA of length 12 to 18) in 10 mM Tris•HCl, 100 mM KCl, pH 7.5 for formation of double-stranded DNA (giving an approximate, average complex:base pair ratio of 85:1). Following a two-hour incubation of the libraries on the resin, solutions were eluted, lyophilized, and derivatized as described above.

oligo (dA•dT) = assay: Affinity selection of amine/salicylaldehyde/Zn2+ library on DNA-cellulose resin, HPLC of derivatized amines in initial elution; settings: 82 μM salicylaldehyde, 164 μM each amine
Procedure: For each sample, 15 mg oligo(dT) cellulose was weighed into a 2 ml Bio-Rad BIOSPIN™ polypropylene chromatography column equipped with a glass frit. The resin was then taken up in 750 μl HEPES buffer (10 mM HEPES, 100 mM KC1, pH 6.8). 0.5 A(260) units of oligo(dA) were then added in 50 μl H2O and allowed to incubate on the resin for one hour at ambient temperature prior to the addition of library samples. During this pre-incubation period, as well as throughout the remainder of the experiments, gentle agitation was provided by rotating the samples on a Barnstead-Thermolyne LAB QUAKE™ rotary shaker. In a similar manner, 15 mg of unfunctionalized cellulose for each control experiment was allowed to soak in 800 μl HEPES buffer at ambient temperature for one hour prior to the addition of library samples.
As one skilled in the are will note, the complexes shown above represent only a subset of the complexes that would be present in this equilibrium. Samples were prepared in triplicate from stock solutions as indicated in Table 1 to provide a total volume of 450 μl. An identical set of samples was prepared for control experiments. In each case, libraries were allowed to incubate at ambient temperature for one hour prior to addition to the DNA-cellulose or control cellulose resin. Additional sets of library samples were prepared according to lines C and D of Table 1 for control experiments conducted in the absence of DNA-cellulose or unfunctionalized cellulose resin.
Following the pre-incubation period, each sample was added to either a DNA-cellulose or unfunctionalized cellulose column as appropriate. These samples were then allowed to incubate on the resin with gentle agitation at ambient temperature for six hours. Solutions were then eluted from the resin, frozen, and lyophilized prior to derivatization and analysis as described below. […]
In order to separate and identify as many constituents of each sample as possible, a minimum of two HPLC elutions were performed for each sample. […] Elutions were monitored at 230 nm. […]

[3] = system: single-stranded oligo(dT)-cellulose; assay: Control selection of salicylaldimine library on single-stranded oligo(dT)-cellulose; settings: conditions identical to double-stranded experiment
[4] = 41 μM Zn2+, normalized to zinc-free samples

With `Oc1ccccc1/C=N/CC1CCCO1` (stereo not drawn) [monomer 11] the “retention on cellulose, presence versus absence of zinc” value [1] was “more strongly retained” and the “retention on the affinity column in the presence of zinc” value [2] was “most strongly retained”.

In the case of `CN1CCCC1CCN` (stereo not drawn) [Amine 4, N-methyl 2-aminoethyl pyrrolidine], the “amount retained on the column at higher Zn2+ versus 41 μM Zn2+” value (oligo (dA•dT); 82 μM Zn2+) is reported as “significant reduction in the amount of 4 retained” and the “reduction in the amount of derivatized amine in initial elution (in words)” value (oligo (dA•dT); [4]) is reported as “significant reduction”.

In the case of `NCCCO` [Amine 6, 3-hydroxypropylamine], the “reduction in the amount of derivatized amine in initial elution” value (oligo (dA•dT); [4]) is reported as greater than 50%.

For `CN1CCCC1CC/N=C/c1ccccc1O` (stereo not drawn) [monomer 9], the “retention on cellulose, presence versus absence of zinc” value [1] was “to the same extent”, the “retention on the affinity column in the presence of zinc” value [2] was “most strongly retained” and the “retention on oligo(dT)-cellulose, presence versus absence of zinc” value [3] was “to the same extent”.

With `Oc1ccccc1/C=N/CCc1ccccn1` [monomer 12] the “derivatized monomer eluted in the presence of zinc versus absence of zinc” value ([2]; 0.5 mM each of 8-13, with or without 26 MM ZnCl2) was “twice as much”.
